Experimental data from paper PMC9981942, “Pharmacokinetics and tissue distribution of Ramulus Mori (Sangzhi) alkaloids in rats and its effects on liver enzyme activity” (Frontiers in Pharmacology, 2023).
Read-outs that look alike come from different tables or passages of the source.

Assay: Tissue distribution after single oral SZ-A (40 mg/kg) in SD rats, plasma and 12 tissues
Assay type: in vivo
Conditions: for half-life / AUC(0-t) / Tmax / Cmax: rat; for AUC(0-t): n=5, read-out: AUC(0-t)
Experimental: Twenty SD rats were randomly classified into four groups corresponding to four-time points (5 and 30 min, 4 and 12 h) (n = 20; 5 animals per time point) that received SZ-A solution (40 mg/kg) via oral administration. After the completion of dose administration, plasma and tissue samples (derived from the heart, liver, spleen, lung, kidney, aortic blood vessels, brown adipose tissue, subcutaneous adipose tissue, abdominal adipose tissue, muscle (thigh skeletal muscle), pancreas, and brain) were collected at predetermined time points. Twenty-eight ICR mice were randomly classified into four groups (n = 7 per group) corresponding to four-time points (5 and 30 min, 4 and 12 h) that received SZ-A solution (20 mg/kg) via oral administration. After the completion of dose administration, tissue samples (derived from the heart, liver, spleen, lung, kidney, aortic blood vessels, brown adipose tissue, abdominal adipose tissue, muscle (thigh skeletal muscle), pancreas, and brain) were collected at predetermined time points.
Collected tissue samples were washed with normal saline. The surface moisture was removed by blotting gently with filter paper, and the weight was recorded. After adding an appropriate amount of normal saline, these tissue samples were ground into homogenates using a cryogenic grinder (JX-CL, Shanghai Jingxin, Shanghai, China). The obtained homogenates were stored at −80°C until LC-MS/MS analysis.
Primary pharmacokinetic parameters, including Cmax, Tmax, area under the plasma concentration-time curve (AUC), t1/2, clearance rate, and the apparent volume of distribution, were calculated using DAS 3.2.8 (Bio Guider Co., Shanghai, China).

[1] = Sprague-Dawley, muscle (thigh skeletal muscle), Muscle, n=5
[2] = Subcutaneous adipose tissue, n=5

OC[C@H]1NCC[C@@H](O)[C@@H]1O [FA, fagomine]
time of maximum drug concentration in heart, muscle, lung, and aortic vessels: 5 min
tissues with the highest concentrations: kidney, followed by the liver, aortic vessels, and brown adipose tissue
CLz (Plasma, n=5): 65.8 ± 15 mL/min/kg
Vz (Plasma, n=5): 4.39 ± 2.04 L/kg
half-life (Sprague-Dawley, Brown adipose tissue, n=5): 139 ± 139 min
AUC(0-t) (Sprague-Dawley, Brown adipose tissue): 1480 ± 380 ng·h/mL
Tmax (Sprague-Dawley, Brown adipose tissue, n=5, read-out: Tmax): 19.8 ± 13.8 min
Cmax (Sprague-Dawley, Kidney, n=5): 8970 ± 1680 ng/mL
half-life (Sprague-Dawley, Kidney, n=5): 139 ± 72.6 min
AUC(0-t) (Sprague-Dawley, Kidney): 27000 ± 8880 ng·h/mL
Tmax (Sprague-Dawley, Kidney, n=5, read-out: Tmax): 25.2 ± 11.4 min
Cmax (Sprague-Dawley, Liver, n=5): 1130 ± 187 ng/mL
half-life (Sprague-Dawley, Liver, n=5): 36 ± 0.6 min
AUC(0-t) (Sprague-Dawley, Liver): 2990 ± 1030 ng·h/mL
Tmax (Sprague-Dawley, Liver, n=5, read-out: Tmax): 25.2 ± 11.4 min
Cmax (Sprague-Dawley, Lung, n=5): 248 ± 5.46 ng/mL
half-life (Sprague-Dawley, Lung, n=5): 31.2 ± 15.6 min
Tmax (Sprague-Dawley, Lung, n=5, read-out: Tmax): 13.2 ± 14.4 min
Cmax (Sprague-Dawley, Pancreas, n=5): 96.9 ± 13.9 ng/mL
half-life (Sprague-Dawley, Pancreas, n=5): 42 ± 2.4 min
AUC(0-t) (Sprague-Dawley, Pancreas): 705 ± 118 ng·h/mL
Tmax (Sprague-Dawley, Pancreas, n=5, read-out: Tmax): 114 ± 115 min
Cmax (Sprague-Dawley, Plasma, n=5): 692 ± 135 ng/mL
half-life (Sprague-Dawley, Plasma, n=5): 46.8 ± 22.8 min
AUC(0-t) (Sprague-Dawley, Plasma): 1800 ± 421 ng·h/mL
Tmax (Sprague-Dawley, Plasma, n=5, read-out: Tmax): 25.2 ± 11.4 min
Cmax [1]: 175 ± 91.2 ng/mL
half-life [1]: 40.8 ± 2.4 min
AUC(0-t) (Sprague-Dawley, muscle (thigh skeletal muscle), Muscle): 577 ± 298 ng·h/mL
Tmax (Sprague-Dawley, muscle (thigh skeletal muscle), Muscle, n=5, read-out: Tmax): 19.8 ± 13.8 min
Cmax (Abdominal adipose tissue, n=5): 221 ± 137 ng/mL
half-life (Abdominal adipose tissue, n=5): 38.4 ± 15 min
AUC(0-t) (Abdominal adipose tissue): 409 ± 127 ng·h/mL
Tmax (Abdominal adipose tissue, n=5, read-out: Tmax): 25.2 ± 11.4 min
Cmax (Aortic blood vessels, n=5): 1090 ± 760 ng/mL
half-life (Aortic blood vessels, n=5): 27 ± 14.4 min
AUC(0-t) (Aortic blood vessels): 1060 ± 367 ng·h/mL
Tmax (Aortic blood vessels, n=5, read-out: Tmax): 4.8 min
Cmax (Brown adipose tissue, n=5): 463 ± 161 ng/mL
Cmax (Heart, n=5): 128 ± 33.6 ng/mL
half-life (Heart, n=5): 42.6 ± 0.6 min
AUC(0-t) (Heart): 382 ± 246 ng·h/mL
Tmax (Heart, n=5, read-out: Tmax): 10.2 ± 11.4 min
AUC(0-t) (Lung): 367 ± 136 ng·h/mL
Cmax (Spleen, n=5): 198 ± 77.7 ng/mL
half-life (Spleen, n=5): 42 ± 4.8 min
AUC(0-t) (Spleen): 491 ± 264 ng·h/mL
Tmax (Spleen, n=5, read-out: Tmax): 30 min
Cmax [2]: 102 ± 52 ng/mL
half-life [2]: 44.4 ± 1.8 min
AUC(0-t) (Subcutaneous adipose tissue): 212 ± 95 ng·h/mL
Tmax (Subcutaneous adipose tissue, n=5, read-out: Tmax): 15 ± 13.8 min
Tmax (other tissues (not named), tissues not named separately for that alkaloid, read-out: time of peak concentration in other tissues (converted)): 30 min
accumulation in tissues (up to 12 h): no long-term accumulation
